Measurements: ChEMBL document CHEMBL5143619, “Antimicrobial Prenylated Isoflavones from the Leaves of the Amazonian Medicinal Plant Vatairea guianensis Aubl” (J Nat Prod, 2022)
pIC50: −log10 of the molar value.

Key:
[1] = Selectivity index, ratio of IC50 for human HaCaT cells to IC50 for human A-375 cells; assay type: toxicity; conditions: read-out: Ratio IC50
[2] = Selectivity index, ratio of IC50 for human HaCaT cells to IC50 for human HCT-116 cells; assay type: toxicity; conditions: read-out: Ratio IC50
A-375 = experiment: Cytotoxicity against human A-375 cells assessed as reduction in cell viability incubated for 24 hrs by CellTiter-Blue cell viability assay; assay type: functional, cell-based; conditions: A-375, 24 h
HCT-116 = experiment: Cytotoxicity against human HCT-116 cells assessed as reduction in cell viability incubated for 24 hrs by CellTiter-Blue cell viability assay; assay type: functional, cell-based; conditions: HCT-116, 24 h
[3] = Cytotoxicity against human HaCaT cells assessed as reduction in cell viability incubated for 24 hrs by CellTiter-Blue cell viability assay; assay type: toxicity, cell-based
MDA-MB-231 = experiment: Cytotoxicity against human MDA-MB-231 cells assessed as reduction in cell viability incubated for 24 hrs by CellTiter-Blue cell viability assay; assay type: functional, cell-based; conditions: MDA-MB-231, 24 h
[4] = Selectivity index, ratio of IC50 for human HaCaT cells to IC50 for human MDA-MB-231 cells; assay type: toxicity; conditions: read-out: Ratio IC50
Cryptococcus neoformans = experiment: Antifungal activity against Cryptococcus neoformans assessed as fungal growth inhibition incubated for 5 hrs by microplate reader analysis; assay type: functional, organism-based
Staphylococcus aureus = experiment: Antibacterial activity against methicillin-resistant Staphylococcus aureus assessed as bacterial growth inhibition incubated for 5 hrs under shaking condition by resazurin dye based assay; assay type: functional, organism-based
[5] = Selectivity index, ratio of IC50 for human HaCaT cells to IC50 for antibacterial activity against methicillin-resistant Staphylococcus aureus; assay type: toxicity; conditions: read-out: Ratio IC50
[6] = Selectivity index, ratio of IC50 for human HaCaT cells to IC50 for antifungal activity against Trichophyton rubrum; assay type: toxicity; conditions: read-out: Ratio IC50
Candida albicans = experiment: Antifungal activity against Candida albicans assessed as fungal growth inhibition incubated for 5 hrs under shaking condition by resazurin dye based assay; assay type: functional, organism-based
Trichophyton rubrum = experiment: Antifungal activity against Trichophyton rubrum assessed as fungal growth inhibition incubated for 72 hrs by microplate reader analysis; assay type: functional, organism-based
Enterococcus faecium = experiment: Antibacterial activity against Enterococcus faecium assessed as bacterial growth inhibition incubated for 5 hrs by bromocresol purple dye based assay; assay type: functional, organism-based
[7] = Selectivity index, ratio of IC50 for human HaCaT cells to IC50 for antibacterial activity against Enterococcus faecium; assay type: toxicity; conditions: read-out: Ratio IC50
[8] = Selectivity index, ratio of IC50 for human HaCaT cells to IC50 for antifungal activity against Candida albicans; assay type: toxicity; conditions: read-out: Ratio IC50
[9] = Selectivity index, ratio of IC50 for human HaCaT cells to IC50 for antifungal activity against Cryptococcus neoformans; assay type: toxicity; conditions: read-out: Ratio IC50

Molecule	selectivity ratio [1]	selectivity ratio [2]	pIC50 (A-375)	pIC50 (HCT-116)	IC50 at 24 h [3]	pIC50 (MDA-MB-231)	pIC50 (Staphylococcus aureus)	selectivity ratio [5]	further results
CC(C)=CCc1c(O)cc(O)c2c(=O)c(-c3ccc(O)cc3)coc12	1.8	0.9	4.05	3.73	160 µM	–	–	–	–
COc1cc(-c2coc3c(CC=C(C)C)c(O)cc(O)c3c2=O)ccc1O	1.4	1.9	4.24	3.96	80.7 µM	4.06	–	–	selectivity ratio [4]: 1.5
CC(C)(O)CCc1c(O)cc(O)c2c(=O)c(-c3ccc(O)cc3)coc12	0.8	1.4	3.80	3.65	135 µM	3.81	–	–	selectivity ratio [4]: 0.9
COc1ccc(-c2coc3c(CC=C(C)C)c(O)cc(O)c3c2=O)cc1O	1.2	0.8	4.23	4.06	69.8 µM	3.96	5.17	10.3	pIC50 (Cryptococcus neoformans): 4.87; selectivity ratio [6]: 5.7; pIC50 (Candida albicans; Candida albicans, 5 h): 4.57; pIC50 (Trichophyton rubrum): 4.91; pIC50 (Enterococcus faecium): 4.89; selectivity ratio [4]: 0.6; selectivity ratio [7]: 5.5; selectivity ratio [8]: 2.6; selectivity ratio [9]: 5.1
CC(C)(O)CCc1c(O)cc(O)c2c(=O)c(-c3ccc(O)c(O)c3)coc12	–	–	–	–	85.9 µM	–	4.53	2.9	–
COc1cc(-c2coc3c(CCC(C)(C)O)c(O)cc(O)c3c2=O)ccc1O	0.8	0.9	3.60	3.63	207 µM	–	4.43	5.6	pIC50 (Enterococcus faecium): 4.09; selectivity ratio [7]: 2.6
COc1ccc(-c2coc3c(CCC(C)(C)O)c(O)cc(O)c3c2=O)cc1O	–	–	–	–	–	–	4.31	> 5.5	–
C[C@@H]1[C@H](O)[C@@H](C)/C=C/C=C/C=C/C=C/C=C/C=C/C=C/[C@H](O[C@@H]2O[C@H](C)[C@@H](O)[C@H](N)[C@@H]2O)C[C@@H]2O[C@](O)(C[C@@H](O)C[C@@H](O)[C@H](O)CC[C@@H](O)C[C@@H](O)CC(=O)O[C@H]1C)C[C@H](O)[C@H]2C(=O)O [AMPHOTERICIN B]	–	–	–	–	–	–	–	–	pIC50 (Cryptococcus neoformans): 6.70
CC1(C)S[C@@H]2[C@H](NC(=O)[C@H](N)c3ccccc3)C(=O)N2[C@H]1C(=O)O [AMPICILLIN]	–	–	–	–	–	–	–	–	pIC50 (Enterococcus faecium): 6.22
O=C(N[C@H](CO)[C@H](O)c1ccc([N+](=O)[O-])cc1)C(Cl)Cl [CHLORAMPHENICOL]	–	–	–	–	–	–	5.51	–	–
Clc1ccccc1C(c1ccccc1)(c1ccccc1)n1ccnc1 [CLOTRIMAZOLE]	–	–	–	–	–	–	–	–	pIC50 (Trichophyton rubrum): 6.52
COc1cccc2c1C(=O)c1c(O)c3c(c(O)c1C2=O)C[C@@](O)(C(=O)CO)C[C@@H]3O[C@H]1C[C@H](N)[C@H](O)[C@H](C)O1 [DOXORUBICIN]	–	–	6.40	4.31	50 µM	4.59	–	–	–
NYSTATIN	–	–	–	–	–	–	–	–	pIC50 (Candida albicans): 5.89
